Measured values: the supplement of paper PMC10307832

Columns and labels:
Test in all cases: relative viability (nuclei count vs DMSO), 5 days (fraction); higher = more cells survive
Crizotinib + Pemetrexed = compound: C[C@@H](Oc1cc(-c2cnn(C3CCNCC3)c2)cnc1N)c1c(Cl)ccc(F)c1Cl [Crizotinib] + Nc1nc2[nH]cc(CCc3ccc(C(=O)N[C@@H](CCC(=O)O)C(=O)O)cc3)c2c(=O)[nH]1 [Pemetrexed] (partner 0.2 µM)
Summary of the method: (§1)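 The day after seeding in 1536-well plates, lung cancer cell lines were treated by pin tool with a single drug, or with a fixed anchor-drug dose together with five library-drug doses (not always all listed) in √10 steps. After 5 days, a combined fix-and-stain solution (final 0.05% Triton X-100, 1% formaldehyde, 1 ug/ml Hoechst) was added. Nuclei counted on 4× images gave relative viability as treated counts over vehicle counts, reported as the median of duplicate plates.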

Olaparib + Pemetrexed = compound: O=C(c1cc(Cc2n[nH]c(=O)c3ccccc23)ccc1F)N1CCN(C(=O)C2CC2)CC1 [Olaparib] + Nc1nc2[nH]cc(CCc3ccc(C(=O)N[C@@H](CCC(=O)O)C(=O)O)cc3)c2c(=O)[nH]1 [Pemetrexed] (partner 0.2 µM)
Summary of the method: as §1

Carfilzomib + Alpelisib = compound: CC(C)C[C@H](NC(=O)[C@H](CCc1ccccc1)NC(=O)CN1CCOCC1)C(=O)N[C@@H](Cc1ccccc1)C(=O)N[C@@H](CC(C)C)C(=O)[C@@]1(C)CO1 [Carfilzomib] + Cc1nc(NC(=O)N2CCC[C@H]2C(N)=O)sc1-c1ccnc(C(C)(C)C(F)(F)F)c1 [Alpelisib] (partner 2 µM)
Summary of the method: as §1

Crizotinib + Palbociclib = compound: C[C@@H](Oc1cc(-c2cnn(C3CCNCC3)c2)cnc1N)c1c(Cl)ccc(F)c1Cl [Crizotinib] + CC(=O)c1c(C)c2cnc(Nc3ccc(N4CCNCC4)cn3)nc2n(C2CCCC2)c1=O [Palbociclib] (partner 0.5 µM)
Summary of the method: as §1

Cell Line	relative viability (Crizotinib + Pemetrexed; first compound 0.01 µM)	relative viability (Crizotinib + Pemetrexed; first compound 0.03162 µM)	relative viability (Crizotinib + Pemetrexed; first compound 0.1 µM)	relative viability (Crizotinib + Pemetrexed; first compound 0.3162 µM)	relative viability (Crizotinib + Pemetrexed; first compound 1 µM)	relative viability (Olaparib + Pemetrexed; first compound 0.08 µM)	relative viability (Olaparib + Pemetrexed; first compound 0.253 µM)	relative viability (Olaparib + Pemetrexed; first compound 2.53 µM)	relative viability (Olaparib + Pemetrexed; first compound 8 µM)	relative viability (Carfilzomib + Alpelisib; first compound 0.001 µM)	relative viability (Carfilzomib + Alpelisib; first compound 0.003162 µM)	relative viability (Carfilzomib + Alpelisib; first compound 0.01 µM)	relative viability (Carfilzomib + Alpelisib; first compound 0.03162 µM)	relative viability (Carfilzomib + Alpelisib; first compound 0.1 µM)	relative viability (Crizotinib + Palbociclib; first compound 0.01 µM)	relative viability (Crizotinib + Palbociclib; first compound 0.03162 µM)	relative viability (Crizotinib + Palbociclib; first compound 0.1 µM)	relative viability (Crizotinib + Palbociclib; first compound 0.3162 µM)	relative viability (Crizotinib + Palbociclib; first compound 1 µM)
NCI-H1993	0.57	0.632	0.503	0.528	0.47	0.622	0.658	0.627	0.556	0.717	0.654	0.765	0.521	0.483	0.641	0.67	0.666	0.535	0.426
NCI-H2009	1.02	1.05	0.974	0.957	0.989	1.15	1.03	1.01	0.842	1.24	1.21	1.21	0.959	0.0547	0.185	0.208	0.249	0.189	0.193
NCI-H2023	0.149	0.226	0.172	0.189	0.209	0.215	0.231	0.241	0.156	0.605	0.539	0.732	0.488	0.0793	0.356	0.308	0.353	0.229	0.236
NCI-H2085	0.808	0.978	0.856	0.749	0.904	0.971	0.755	0.871	0.852	0.978	1.1	0.908	0.43	0.282	0.464	0.484	0.469	0.442	0.44
NCI-H2087	0.725	0.724	0.553	0.702	0.723	0.74	0.591	0.596	0.556	1.13	1.25	0.83	0.0689	0.0648	0.178	0.244	0.213	0.229	0.23
NCI-H2126	0.616		0.68	0.659	0.724	0.743	0.649	0.663	0.681	0.683	0.787	0.792	0.774	0.563	0.313	0.385	0.37	0.342	0.351
NCI-H2170	0.251	0.283	0.265	0.266	0.278	0.259	0.331	0.265	0.245	0.801	0.775	0.875	0.659	0.24	0.38	0.435	0.362	0.384	0.381
NCI-H2228	0.338	0.324	0.296	0.352	0.317	0.395	0.323	0.311	0.322	0.662	0.73	0.49	0.108	0.156	0.714	0.608	0.691	0.432	0.367
